Reference: US11091482B2, “Isoxazolyl-carbonyloxy azabicyclo[3.2.1]octanyl compounds as FXR activators” (ARDELYX, INC., priority 2016, dated 2021)
Read-outs that look alike come from different tables or passages of the source.

How the values were obtained:
[1] = biological target: ligand binding domain of human FXR (Homo sapiens (Human), UniProt Q96RI1); assay: FXR ligand binding assay (LanthaScreen FRET); details: for Emax: read-out: % Efficacy;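 as to all read-outs here: TR-FRET coactivator recruitment: ligand-induced binding of fluorescein-labelled SRC2-2 peptide to GST-tagged FXR LBD detected via Tb anti-GST antibody, serial compound dilutions, 3-parameter logistic fit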
[2] = biological target: human Farnesoid X receptor ligand-binding domain/Gal4 DNA binding domain chimera (Homo sapiens (Human), UniProt Q96RI1); assay: Cell-based FXR beta-lactamase reporter assay (FXR-UAS-bla HEK 293T cells); details: for Emax: HEK-293T, read-out: % Efficacy; for EC50 / FXR pEC50 / % Efficacy: cellular FXR beta-lactamase reporter assay; for EC50 / FXR pEC50: -log EC50; for EC50: read-out: FXR pEC50 (converted); for % Efficacy: extent of activation relative to GW4064
Protocol: FXR activation was measured using a cell line and procedure obtained from Life Technologies (Cat #K1691). FXR-UAS-bla HEK 293T cells contain a human Farnesoid X receptor ligand-binding domain/Gal4 DNA binding domain chimera stably integrated into the CellSensor® UAS-bla HEK 293T cell line. The CellSensor® UAS-bla HEK 293T contains a beta-lactamase reporter gene under control of a UAS response element stably integrated into HEK 293T cells. Activation of FXR by bound ligands results in transcriptional activation of the beta-lactamase reporter gene, which is detected via assay of beta-lactamase activity. Cells are harvested and diluted into assay medium containing phenol red-free DMEM supplemented with 2% Charcoal-stripped FBS, pyruvate, non-essential amino acids. Cells are then transferred to a 384 well assay plate. Test compounds are dissolved in DMSO and a 3-fold serial dilution series is generated, then further diluted into assay medium. […] A FRET-based […] is loaded into cells as its acetomethoxy ester. Intracellular esterases liberate free CCF4, a cephalosporin core linking 7-hydroxycoumarin to fluorescein. In the presence of beta-lactamase activity produced in the presence of FXR agonists, cleavage of CCF4 spatially separates the two dyes and disrupts FRET, so that exciting the coumarin at 409 nm now produces a blue fluorescence signal at 447 nm. The change in FRET signal is plotted against the test compound concentration and fit to a 3-parameter logistical equation.

[3] = FXR ligand binding assay, -log EC50
[4] = FXR ligand binding assay, extent of activation relative to GW4064

Sequence of human Farnesoid X receptor ligand-binding domain/Gal4 DNA binding domain chimera (Q96RI1 262-486, stated change not applied): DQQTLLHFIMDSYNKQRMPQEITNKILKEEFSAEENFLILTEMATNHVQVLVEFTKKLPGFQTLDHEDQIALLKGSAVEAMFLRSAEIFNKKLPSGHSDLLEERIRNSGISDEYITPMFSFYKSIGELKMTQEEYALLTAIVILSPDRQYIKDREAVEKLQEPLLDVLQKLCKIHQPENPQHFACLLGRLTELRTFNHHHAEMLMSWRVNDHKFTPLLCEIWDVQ
Sequence of ligand binding domain of human FXR (Q96RI1 262-486): as the sequence (Q96RI1 262-486, stated change not applied) above

`COc1cc2nc(N3[C@@H]4CC[C@H]3C[C@@H](OC(=O)c3c(-c5c(F)cccc5F)noc3C3CC3)C4)sc2cc1C(=O)O` [Compound I-18, 2-[(1R,3R,5S)-3-[5-cyclopropyl-3-(2,6-difluorophenyl)-1,2-oxazole-4-carbonyloxy]-8-azabicyclo[3.2.1]octan-8-yl]-5-methoxy-1,3-benzothiazole-6-carboxylic Acid] gave an Emax [1] of 66%, an Emax [2] of 99% and an EC50 [2] of 0.251 µM.
For `O=C(O)c1cc(F)c2nc(N3[C@@H]4CC[C@H]3C[C@@H](OC(=O)c3c(C5CCC6(CC5)CC6)noc3C3CC3)C4)sc2c1` [Compound I-19, 2-[(1R,3R,5S)-3-(5-cyclopropyl-3-{spiro[2.5]octan-6-yl}-1,2-oxazole-4-carbonyloxy)-8-azabicyclo[3.2.1]octan-8-yl]-4-fluoro-1,3-benzothiazole-6-carboxylic Acid], the “FXR pEC50” value [1, 3] was 7.2, the “% Efficacy” value [1, 4] was 55% and the “FXR pEC50” value [2] was 6.8. The “% Efficacy” value [2] was 79%.
For `O=C(O)c1cc(F)c2nc(N3[C@@H]4CC[C@H]3C[C@@H](OC(=O)c3c(C56CCC(CC5)CC6)noc3C3CC3)C4)sc2c1` [Compound I-20, 2-[(1R,3R,5S)-3-(3-{Bicyclo[2.2.2]octan-1-yl}-5-cyclopropyl-1,2-oxazole-4-carbonyloxy)-8-azabicyclo[3.2.1]octan-8-yl]-4-fluoro-1,3-benzothiazole-6-carboxylic Acid], the “FXR pEC50” value [1, 3] was greater than 4.5, the “FXR pEC50” value [2] was 6.6 and the “% Efficacy” value [2] was 22%.
In the case of `Cc1onc(-c2c(Cl)cccc2Cl)c1C(=O)O[C@H]1C[C@H]2CC[C@@H](C1)N2c1nc2c(F)cc(C(=O)O)cc2s1` [Compound I-23, 2-[(1R,3S,5S)-3-[3-(2,6-dichlorophenyl)-5-methyl-1,2-oxazole-4-carbonyloxy]-8-azabicyclo[3.2.1]octan-8-yl]-4-fluoro-1,3-benzothiazole-6-carboxylic Acid], the “FXR pEC50” value [1, 3] is reported as 7.1, the “% Efficacy” value [1, 4] is reported as 37% and the “FXR pEC50” value [2] is reported as 6.8. The “% Efficacy” value [2] was 100%.
`O=C(O)c1cc(F)c2nc(N3[C@@H]4CC[C@H]3C[C@@H](OC(=O)c3c(-c5c(Cl)cccc5Cl)noc3C3CCC3)C4)sc2c1` [Compound I-24, 2-[(1R,3R,5S)-3-[5-cyclobutyl-3-(2,6-dichlorophenyl)-1,2-oxazole-4-carbonyloxy]-8-azabicyclo[3.2.1]octan-8-yl]-4-fluoro-1,3-benzothiazole-6-carboxylic Acid] was tested, and the “FXR pEC50” value [1, 3] was 7.9, the “% Efficacy” value [1, 4] was 64% and the “FXR pEC50” value [2] was 7.5. For the same molecule, the “% Efficacy” value [2] was 98%.
In the case of `O=C(O)c1cc(F)c2nc(N3[C@@H]4CC[C@H]3C[C@@H](OC(=O)c3c(-c5c(Cl)cccc5Cl)noc3C3(F)CC3)C4)sc2c1` [Compound I-27, 2-[(1R,3R,5S)-3-[3-(2,6-dichlorophenyl)-5-(1-fluorocyclopropyl)-1,2-oxazole-4-carbonyloxy]-8-azabicyclo[3.2.1]octan-8-yl]-4-fluoro-1,3-benzothiazole-6-carboxylic Acid], the “FXR pEC50” value [1, 3] is reported as 8.2, the “% Efficacy” value [1, 4] is reported as 107% and the “FXR pEC50” value [2] is reported as 8.4. For the same molecule, the “% Efficacy” value [2] was 108%.
With `Cn1cc(C(=O)O)c2ccc(N3[C@@H]4CC[C@H]3C[C@@H](OC(=O)c3c(-c5c(Cl)cccc5Cl)noc3C3CC3)C4)cc21` [Compound I-28, 6-[(1R,3R,5S)-3-[5-cyclopropyl-3-(2,6-dichlorophenyl)-1,2-oxazole-4-carbonyloxy]-8-azabicyclo[3.2.1]octan-8-yl]-1-methyl-1H-indole-3-carboxylic Acid] the Emax [1] was 94%, the Emax [2] was 117% and the EC50 [2] was 0.0251 µM.
For `O=C(O[C@H]1C[C@H]2CC[C@@H](C1)N2c1ccc2c(C(=O)O)noc2c1)c1c(-c2c(Cl)cccc2Cl)noc1C1CC1` [Compound I-29, 6-[(1R,3R,5S)-3-[5-cyclopropyl-3-(2,6-dichlorophenyl)-1,2-oxazole-4-carbonyloxy]-8-azabicyclo[3.2.1]octan-8-yl]-1,2-benzoxazole-3-carboxylic Acid], the EC50 ([1]; FXR ligand binding assay, -log EC50, read-out: FXR pEC50 (converted)) was 0.316 µM, the Emax [1] was 98% and the Emax [2] was 124%. For the same molecule, the EC50 [2] was 0.251 µM.
In the case of `CN1c2cc(N3[C@@H]4CC[C@H]3C[C@@H](OC(=O)c3c(-c5c(Cl)cccc5Cl)noc3C3CC3)C4)ccc2C(=O)C1(F)F` [Compound I-30, (1R,3R,5S)-8-(2,2-difluoro-1-methyl-3-oxo-2,3-dihydro-1H-indol-6-yl)-8-azabicyclo[3.2.1]octan-3-yl 5-cyclopropyl-3-(2,6-dichlorophenyl)-1,2-oxazole-4-carboxylate], the Emax [1] is reported as 40%, the Emax [2] is reported as 82% and the EC50 [2] is reported as 0.1 µM.
`Cn1c(N2[C@@H]3CC[C@H]2C[C@@H](OC(=O)c2c(-c4c(Cl)cccc4Cl)noc2C2CC2)C3)nc2c(F)cc(C(=O)O)cc21` [Compound I-31, 2-[(1R,3R,5S)-3-[5-cyclopropyl-3-(2,6-dichlorophenyl)-1,2-oxazole-4-carbonyloxy]-8-azabicyclo[3.2.1]octan-8-yl]-4-fluoro-1-methyl-1H-1,3-benzodiazole-6-carboxylic Acid] was tested, and the “% Efficacy” value [1] was 63%, the “FXR pEC50” value [1, 3] was 6.6 and the “FXR pEC50” value [2] was 6.4. The “% Efficacy” value [2] was 100%.
With `O=C(Cc1c(-c2c(Cl)cccc2Cl)noc1C1CC1)O[C@H]1C[C@H]2CC[C@@H](C1)N2c1nc2c(F)cc(C(=O)O)cc2s1` [Compound I-32, 2-[(1R,3R,5S)-3-({2-[5-cyclopropyl-3-(2,6-dichlorophenyl)-1,2-oxazol-4-yl]acetyl}oxy)-8-azabicyclo[3.2.1]octan-8-yl]-4-fluoro-1,3-benzothiazole-6-carboxylic Acid] the “FXR pEC50” value [1, 3] was 7.4, the “% Efficacy” value [1, 4] was 34% and the “FXR pEC50” value [2] was 6.4. The “% Efficacy” value [2] was 86%.
With `O=C(O)c1ccc(N2[C@@H]3CC[C@H]2C[C@@H](OC(=O)c2c(-c4c(Cl)cccc4Cl)noc2C2CC2)C3)cc1` [Compound I-34, 4-[(1R,3R,5S)-3-[5-Cyclopropyl-3-(2,6-dichlorophenyl)-1,2-oxazole-4-carbonyloxy]-8-azabicyclo[3.2.1]octan-8-yl]benzoic Acid] the Emax [1] was 79%, the Emax [2] was 107% and the EC50 [2] was 0.02 µM.
For `O=C(O)c1ccc(N2[C@@H]3CC[C@H]2C[C@@H](OC(=O)c2c(-c4c(Cl)cccc4Cl)noc2C2CC2)C3)c(F)c1` [Compound I-35, 4-[(1R,3R,5S)-3-[5-Cyclopropyl-3-(2,6-dichlorophenyl)-1,2-oxazole-4-carbonyloxy]-8-azabicyclo[3.2.1]octan-8-yl]-3-fluorobenzoic Acid], the Emax [1] was 92%, the Emax [2] was 116% and the EC50 [2] was 0.0316 µM.
In the case of `O=C(O)c1ccc(N2[C@@H]3CC[C@H]2C[C@@H](OC(=O)c2c(-c4c(Cl)cccc4Cl)noc2C2CC2)C3)c(Cl)c1` [Compound I-36, 3-chloro-4-[(1R,3R,5S)-3-[5-cyclopropyl-3-(2,6-dichlorophenyl)-1,2-oxazole-4-carbonyloxy]-8-azabicyclo[3.2.1]octan-8-yl]benzoic acid], the “FXR pEC50” value [1, 3] is reported as 7.3, the Emax [1] is reported as 106% and the Emax [2] is reported as 99%. For the same molecule, the EC50 [2] was 0.158 µM.
For `O=C(O)c1ccc(N2[C@@H]3CC[C@H]2C[C@@H](OC(=O)c2c(-c4c(Cl)cccc4Cl)noc2C2CC2)C3)cc1C(F)(F)F` [Compound I-37, 4-[(1R,3R,5S)-3-[5-cyclopropyl-3-(2,6-dichlorophenyl)-1,2-oxazole-4-carbonyloxy]-8-azabicyclo[3.2.1]octan-8-yl]-2-(trifluoromethyl)benzoic acid], the “FXR pEC50” value [1, 3] was 7.7, the Emax [1] was 50% and the Emax [2] was 93%. The EC50 [2] was 0.1 µM.
In the case of `O=C(O)c1ccc(N2[C@@H]3CC[C@H]2C[C@@H](OC(=O)c2c(-c4c(Cl)cccc4Cl)noc2C2CC2)C3)c(C(F)(F)F)c1` [Compound I-38, 4-[(1R,3R,5S)-3-[5-cyclopropyl-3-(2,6-dichlorophenyl)-1,2-oxazole-4-carbonyloxy]-8-azabicyclo[3.2.1]octan-8-yl]-3-(trifluoromethyl)benzoic acid], the “FXR pEC50” value [1, 3] is reported as 6.6, the Emax [1] is reported as 80% and the Emax [2] is reported as 112%. It also gave an EC50 [2] of 0.0794 µM.
